Where two headings read alike, the source gives them in different places. Where a SMILES comes first, the peptide text is derived from it. [ ]: non-standard residue; d: D form.
Columns and labels:
D/I Aβ-oligomers = molecular target: T1, D/I Aβ-oligomers (Homo sapiens, UniProt P05067, D694N/E693Q); assay: QIAD assay, D/I Aβ oligomer elimination; format: biochemical; conditions: 40 µM D/I Aβ preincubated 15 min, 10 µM D-peptide, 30 min coincubation, density gradient fractions 4-6, RP-HPLC UV 214 nm, N = 2-5
T1 construct: (Gln^22, Asn^23)-Amyloid β-Protein (1-40) (D/I Aβ); purchased Bachem (Bubendorf, Switzerland); host or cells: chemical synthesis
Protocol: According to Brener et al., a QIAD assay was performed in order to evaluate the Aβ(1-42) or D/I Aβ oligomer elimination efficacies of RD2D3 and cRD2D3 [18]. In short, 80 µM lyophilized Aβ(1-42) or 40 µM D/I Aβ was preincubated for 2 h or 15 min, respectively, to enrich Aβ-oligomers. Afterwards, either 20 µM RD2D3 or cRD2D3 for Aβ(1-42) or 10 µM RD2D3 or cRD2D3 for D/I Aβ were added to the preincubated solution and coincubated for additional 30 min. Subsequently, the samples were loaded on the top of a density gradient (5–50% (w/v) iodixanol (OptiPrep, Sigma-Aldrich, Darmstadt, Germany)) followed by an ultracentrifugation step (3 h at 4 °C and 259000× g (Optima TL-100, Beckman Coulter, Brea, CA, USA)). Following the ultracentrifugation, 14 fractions (140 µL each) were harvested by upward displacement. Fraction 15 contains the dissolved pellet in 6 M guanidine hydrochloride solution. Top fractions 1–2 contained Aβ-monomers, fractions 4–6 contained the Aβ-oligomers, which are of special interest, and the bottom fractions 11–14 contained high molecular weight (co-)precipitates or aggregated Aβ. Aβ(1-42) or D/I Aβ concentrations of each fraction were determined via analytical RP-HPLC and UV absorbance detection at 214 nm.

[1] = Proteolytic stability in human liver microsomes; format: in vitro ADME
Protocol: (§1) Both compounds have already been extensively studied with respect to their in vivo pharmacokinetic profiles. Here, we performed some additional test to investigate the proteolytic stability of the compounds in simulated gastric (SGF) and intestinal fluid (SIF) and human plasma and human liver microsomes. The experiments were performed as described previously. According to the guidelines of the European Pharmacopoeia 7.0, SGF and SIF were prepared. Plasma was purchased from Biotrend with K3-EDTA as an anticoagulant (Biotrend, Köln, Germany). Human liver microsomes were pooled from different donors and purchased from Sekisui XenoTech (Kansas City, KS, USA). In order to determine whether the compounds RD2D3 and cRD2D3 are stable or would be metabolized, 150 µM of each compound was incubated in triplicate for defined time points slightly shaking at 37 °C in the media described above (SGF and SIF: 4 and 8 h, plasma: 8, 24 and 48 h and microsomes: 8 and 24 h). Incubation was stopped by precipitating the proteins. For this, 3% trichloroacetic acid (w/v) was added to the respective sample under vortexing followed by a centrifugation step (14,000× g at 4 °C for 5 min). For analysis, supernatants containing the compounds were collected. The precipitated media without compound was used as a control and as reference for the quantification served each medium with compound where the reaction was stopped immediately by precipitating the proteins. All samples were analyzed by RP-HPLC as previously described.

[2] = Body weight in i.p. treatment study; format: in vivo; conditions: Tg-SwDI mice, mean ± SEM; for Body weight before treatment: 11 months old, before 28 d i.p. osmotic minipump 8 mg/kg daily; for Body weight after treatment: after 28 d i.p. osmotic minipump 8 mg/kg daily
Protocol: Eleven months old Tg-SwDI were treated for 28 d i.p. by use of an osmotic minipump (Alzet osmotic pumps, Modell 1004, Charles River, Wilmington, MS, USA) with a daily dosage of 8 mg/kg peptide (RD2D3 (n = 14) or cRD2D3 (n = 12)) in PBS (pH 7.4) or vehicle (Placebo (n = 13), PBS, pH 7.4). The minipumps and the i.p. application route have been used to achieve continuous application of the study drug. After surgery, mice were monitored daily the following three days and twice each week until the end of the treatment. A loss of body weight and severe conspicuities were defined as exclusion criteria. No mouse was affected by these exclusion criteria. During the last one and a half weeks of treatment, different behavioral tests (nesting behavior, marble burying, open field test and MWM) were conducted with all mice.

[3] = Proteolytic stability in human plasma; format: in vitro ADME
Protocol: as §1

Aβ(1-42) = molecular target: T2, Aβ(1-42) (Homo sapiens, UniProt P05067); assay: SPR, D-peptide immobilized, Aβ(1-42) monomers as analyte; format: binding; conditions: D-peptide immobilized on series S CM-5 chip, Aβ(1-42) monomers analyte 0.0045-10 µM, 10 mM HEPES + 50 mM NaCl pH 7.4, 25 °C, steady-state Langmuir 1:1 fit (Fig. 1g), read-out: KD Aβ(1-42), D-peptide as ligand
T2 construct: Synthetic Aβ(1-42) and (Gln^22, Asn^23)-Amyloid β-Protein (1-40) (D/I Aβ) with >95% purity were purchased; purchased Bachem (Bubendorf, Switzerland); host or cells: chemical synthesis
Protocol: The dissociation constant (KD) of RD2D3 and cRD2D3 binding to Aβ(1-42) and D/I Aβ was determined by SPR spectroscopy using a Biacore T200 instrument (Biacore, GE Healthcare, Uppsala, Sweden). Aβ(1-42) or D/I Aβ was used as the ligand, while RD2D3 and cRD2D3 were used as the analyte or vice versa.
By using the compounds (RD2D3 and cRD2D3) as ligands, they were immobilized on two separate channels on a series S CM-5 sensor chip (Cytiva, GE Healthcare, Uppsala, Sweden) by amine coupling. Both flow cells on each channel were activated with a mixture of 50 mM N-hydroxysuccinimide (NHS) and 16.1 mM N-ethyl-N’-(dimethylaminopropyl)carbodiimide (EDC) (XanTec, Düsseldorf, Germany) for 7 min. The peptides were diluted to 50 µg/mL in 10 mM maleic acid pH 6 (AppliChem, Darmstadt, Germany) and injected over flow cell two of each channel to a final signal between 600 and 900 RU. After the peptides were immobilized, the ligand and reference flow cells of each channel were quenched by injecting 1 M ethanolamine pH 8.5 (XanTec, Düsseldorf, Germany) for 7 min. […] Aβ(1-42) or D/I Aβ were diluted in the running buffer to the following concentrations: 10 µM, 3.3 µM, 1.1 µM, 0.37 µM, 0.12 µM, […], 0.014 µM and 0.0045 µM. All samples were injected over the flow cells for 180 s, followed by a dissociation step of 600 s with running buffer. […]

SMILES: CC(C)C[C@@H](NC(=O)[C@@H](CCCNC(=N)N)NC(=O)[C@H](NC(=O)[C@@H](CCCNC(=N)N)NC(=O)[C@H]1CCCN1C(=O)[C@@H](CCCNC(=N)N)NC(=O)[C@@H](CCCNC(=N)N)NC(=O)[C@@H](CCCNC(=N)N)NC(=O)[C@@H](CCCNC(=N)N)NC(=O)[C@@H](CCCNC(=N)N)NC(=O)[C@@H](CCCNC(=N)N)NC(=O)[C@@H](CC(N)=O)NC(=O)[C@@H](Cc1c[nH]cn1)NC(=O)[C@H](NC(=O)[C@@H](Cc1c[nH]cn1)NC(=O)[C@@H](CC(C)C)NC(=O)[C@H](NC(=O)[C@H]1CCCN1)[C@H](C)O)[C@H](C)O)[C@H](C)O)C(=O)N[C@H](Cc1c[nH]cn1)C(=O)N[C@@H](C(=O)N[C@H](Cc1c[nH]cn1)C(=O)N[C@H](CCCNC(=N)N)C(=O)N[C@H](CC(N)=O)C(=O)N[C@H](CCCNC(=N)N)C(N)=O)[C@H](C)O [RD2D3] (H-[dP][dT][dL][dH][dT][dH][dN][dR][dR][dR][dR][dR][dR][dP][dR][dT][dR][dL][dH][dT][dH][dR][dN][dR]-NH2)
- Elimination of toxic D/I Aβ-oligomers (QIAD) (D/I Aβ-oligomers): 94%
- remaining at 8 h, 150 µM ([1]; human, microsomes): 81.9%
- remaining at 24 h, 150 µM ([1]; human, microsomes): 78.2%
- Body weight before treatment [2]: 33.2 ± 2.6 g
- Body weight after treatment [2]: 34.3 ± 0.6 g
- remaining at 8 h, 150 µM ([3]; human, plasma): 84.7%
- remaining at 24 h, 150 µM ([3]; human, plasma): 91.9%
- remaining at 48 h, 150 µM ([3]; human, plasma): 93.7%
- Kd (Aβ(1-42)): 18.4 ± 6.5 µM

SMILES: CC(C)C[C@H]1NC(=O)[C@@H](CCCNC(=N)N)NC(=O)[C@@H]([C@H](C)O)NC(=O)[C@@H](CCCNC(=N)N)NC(=O)[C@H]2CCCN2C(=O)[C@@H](CCCNC(=N)N)NC(=O)[C@@H](CCCNC(=N)N)NC(=O)[C@@H](CCCNC(=N)N)NC(=O)[C@@H](CCCNC(=N)N)NC(=O)[C@@H](CCCNC(=N)N)NC(=O)[C@@H](CCCNC(=N)N)NC(=O)[C@@H](CC(N)=O)NC(=O)[C@@H](Cc2c[nH]cn2)NC(=O)[C@@H]([C@H](C)O)NC(=O)[C@@H](Cc2c[nH]cn2)NC(=O)[C@@H](CC(C)C)NC(=O)[C@@H]([C@H](C)O)NC(=O)[C@H]2CCCN2C(=O)[C@@H](CCCNC(=N)N)NC(=O)[C@@H](CC(N)=O)NC(=O)[C@@H](CCCNC(=N)N)NC(=O)[C@@H](Cc2c[nH]cn2)NC(=O)[C@@H]([C@H](C)O)NC(=O)[C@@H](Cc2c[nH]cn2)NC1=O [cRD2D3] (cyclo([dH][dN][dR][dR][dR][dR][dR][dR][dP][dR][dT][dR][dL][dH][dT][dH][dR][dN][dR][dP][dT][dL][dH][dT]))
- Elimination of toxic D/I Aβ-oligomers (QIAD) (D/I Aβ-oligomers): 100%
- remaining at 8 h, 150 µM ([1]; pooled human liver microsomes, 150 µM, 37 °C, 8 h, TCA precipitation, RP-HPLC, mean of three independent experiments, read-out: Stability in human liver microsomes, 8 h): 89.2%
- remaining at 24 h, 150 µM ([1]; pooled human liver microsomes, 150 µM, 37 °C, 24 h, TCA precipitation, RP-HPLC, mean of three independent experiments, read-out: Stability in human liver microsomes, 24 h): 73.6%
- Body weight before treatment [2]: 35.1 ± 1.4 g
- Body weight after treatment [2]: 33.2 ± 1.0 g
- remaining at 8 h, 150 µM ([3]; human plasma (K3-EDTA), 150 µM, 37 °C, 8 h, TCA precipitation, RP-HPLC, mean of three independent experiments, read-out: Stability in human plasma, 8 h): 91.8%
- remaining at 24 h, 150 µM ([3]; human plasma (K3-EDTA), 150 µM, 37 °C, 24 h, TCA precipitation, RP-HPLC, mean of three independent experiments, read-out: Stability in human plasma, 24 h): 93.7%
- remaining at 48 h, 150 µM ([3]; human plasma (K3-EDTA), 150 µM, 37 °C, 48 h, TCA precipitation, RP-HPLC, mean of three independent experiments, read-out: Stability in human plasma, 48 h): 92.4%
- Kd (Aβ(1-42)): 5.63 ± 2.5 µM

Reference: PMC8234218, “In Vitro and In Vivo Efficacies of the Linear and the Cyclic Version of an All-D-Enantiomeric Peptide Developed for the Treatment of Alzheimer’s Disease” (International Journal of Molecular Sciences, 2021)
